Results taken from patent publication US7875604B2, “Compounds that inhibit HIV particle formation” (University of Virginia Patent Foundation, priority 2004, dated 2011).
Read-outs that look alike come from different tables or passages of the source.

Key:
Type in all cases: cell-based
HeLa = experiment: HIV-1 Rev assay toxicity/non-specificity readout (Firefly Luciferase); conditions: 50% inhibition of Firefly Luciferase (toxicity/non-specificity), 24 hours; read-out: TC50 (the source's name)
Protocol: (§1) The eight compounds listed in Table 1 were also tested in an assay that measured HIV-1 Rev function. The HIV-1 Rev assay is based upon the use of a reporter for detecting whether drug candidates are capable of inhibiting the function of the viral Rev protein. The reporter used for these assays is the Renilla Luciferase protein, which is an enzyme that produces detectable light when mixed with certain chemicals. For this assay, a cell line has been developed in which the production of the reporter by the cells requires the function of HIV-1 Rev. Therefore, if a drug candidate inhibits the function of Rev, it decreases the amount of the reporter produced by the cells. By using Renilla Luciferase as the reporter, the inhibition of Rev is easily detected as a decrease in the amount of light produced by the cells when mixed with the appropriate chemicals. Furthermore, the cell line for this assay has been engineered to use a second similar reporter (Firefly Luciferase) that detects whether drug candidates are toxic.
(§2) Compounds were tested in the Rev assay using the maximum high-test concentration possible based on the supplied stocks as shown in Table 3. Compounds were prepared at a 2× high-test concentration by combining drug stock with tissue culture media at a ratio of 5 μL of drug to 995 μL of media. This 2× high-test sample was subsequently serially diluted in tissue culture media using 1/2 log dilutions. This series of 2× concentrated drug was subsequently diluted 1:1 by combining with an equal volume of cells in media in the 96-well plates used for the assay. Representative data for two of the compounds is also depicted in FIG. 5.
(§3) Leptomycin B is a control compound known to inhibit Rev function.

fresh human PBMCs = experiment: MTS staining for PBMC viability to measure cytotoxicity
Protocol: For the standard PBMC assay, PHA-P stimulated cells from at least two normal donors were pooled (mixed together), diluted in fresh medium to a final concentration of 1×10^6 cells/mL, and plated in the interior wells of a 96 well round bottom microplate at 50 μL/well (5×10^4 cells/well) in a standard format developed by the Infectious Disease Research department of Southern Research Institute. Pooling (mixing) of mononuclear cells from more than one donor is used to minimize the variability observed between individual donors, which results from quantitative and qualitative differences in HIV infection and overall response to the PHA and IL-2 of primary lymphocyte populations. Each plate contains virus/cell control wells (cells plus virus), experimental wells (drug plus cells plus virus) and compound control wells (drug plus media without cells, necessary for MTS monitoring of cytotoxicity). Since HIV-1 is not cytopathic to PBMCs, this allows the use of the same assay plate for both antiviral activity and cytotoxicity measurements. Test drug dilutions were prepared at a 2× concentration in microtiter tubes and 100 μL of each concentration was placed in appropriate wells using the standard format. 50 μL of a predetermined dilution of virus stock was placed in each test well (final MOI≅0.1). The PBMC cultures were maintained for seven days following infection at 37° C., 5% CO2. After this period, cell-free supernatant samples were collected for analysis of reverse transcriptase activity as a measure of virus release. Following removal of supernatant samples, compound cytotoxicity was measured by addition of MTS to the plates for determination of cell viability. Wells were also examined microscopically and any abnormalities were noted.
At assay termination, assay plates were stained with the soluble tetrazolium-based dye MTS (CellTiter 96 Reagent, Promega) to determine cell viability and quantify compound toxicity. The mitochondrial enzymes of metabolically active cells metabolize MTS to yield a soluble formazan product. This allows the rapid quantitative analysis of cell viability and compound cytotoxicity. […] At termination of the assay, 20 μL of MTS reagent was added per well. The microtiter plates were then incubated 4-6 hrs at 37° C. The incubation intervals were chosen based on empirically determined times for optimal dye reduction. Adhesive plate sealers were used in place of the lids, the sealed plate was inverted several times to mix the soluble formazan product and the plate was read spectrophotometrically at 490/650 nm with a Molecular Devices Vmax or SpectraMaxPlus plate reader.
as §2, with “PBMC” for “Rev”, “which are listed” for “as shown”, “table” for “Table”, “assay.” for “assay. Representative data for two of the compounds is also depicted in FIG. 5.”

U1 cells = experiment: MTS staining for cell viability in U1 cell assay; conditions: Table 6, MTS, read-out: TC50 (the source's name)
Protocol: (§4) At the time of the assay, cells were collected by centrifugation and counted by hemacytometer. If cell viability by Trypan Blue dye exclusion was less than 70% the assay was terminated. The cells were adjusted to 5×10^4 cells/mL and 100 μL placed in 96 well plates with 100 μL media containing a final concentration of 5 ng/mL TNF-α and the test compound. Cultures were incubated for 3 days and supernatants harvested. Compound toxicity was determined by MTS dye reduction. Virus expression was measured by supernatant reverse transcriptase activity.
(§5) At assay termination, the assay plates were stained with the soluble tetrazolium-based dye MTS (CellTiter 96 Reagent, Promega) to determine cell viability and quantify compound toxicity as described for the PBMC assay.
as §2, with “U1 latency” for “Rev”, “which are listed” for “as shown”, “table” for “Table”, “3. Compounds were tested using the maximum high-test concentration possible based on the supplied stocks.” for “3.”, “Temacrazine a known inhibitor of HIV transcription was used as a control compound that is active in the post-integration part” for “Representative data for two”, “HIV life cycle.” for “compounds is also depicted in FIG. 5.”
(§6) Compounds were tested using the maximum high-test concentration possible based on the supplied stocks. Compounds were prepared at a 2× high-test concentration by combining drug stock with tissue culture media at a ratio of 5 μL of drug to 995 μL of media. This 2× high-test (HT) sample was subsequently serially diluted in tissue culture media using 1/2 log dilutions. This series of 2× concentrated drug was subsequently diluted 1:1 by combining with an equal volume of cells in media in the 96-well plates used for the assay.

[1] = HIV-1 Rev assay toxicity/non-specificity readout (Firefly Luciferase); conditions: human
Protocol: as §1, §2, §3

[2] = MTS staining for cell viability in U1 cell assay; conditions: human, U1 cells stimulated with TNF-α, read-out: TC50
Protocol: as §4, §5
Compounds were tested in the U1 latency assay using the maximum high-test concentration possible based on the supplied stocks which are listed in table 3. Compounds were tested using the maximum high-test concentration possible based on the supplied stocks. Compounds were prepared at a 2× high-test concentration by combining drug stock with tissue culture media at a ratio of 5 μL of drug to 995 μL of media. This 2× high-test sample was subsequently serially diluted in tissue culture media using 1/2 log dilutions. This series of 2× concentrated drug was subsequently diluted 1:1 by combining with an equal volume of cells in media in the 96-well plates used for the assay. Temacrazine a known inhibitor of HIV transcription was used as a control compound that is active in the post-integration part of the HIV life cycle.
as §6

| Compound | CC50 at 24 hours [1] [µM] | CC50 at 3 days ([2]; Table 6, MTS) [µM] | also measured |
| --- | --- | --- | --- |
| 2-chloro-N-(4-methylphenyl)-4-(trifluoromethyl)-1,3-thazole-5-carboxamide [Compound 91161] |  |  | CC50 (HeLa): > 39.5 µM; CC50 (fresh human PBMCs; PBMC plates with HIV-1 BR/93/021, MTS, read-out: TC50 (the source's name)): 23.3 µM; CC50 (fresh human PBMCs; PBMC plates with HIV-1 NL4-3, MTS, read-out: TC50 (the source's name)): 13.5 µM; CC50 (U1 cells): 22.3 µM |
| CCc1c(C(=O)Nc2ccccc2)c(C)nc2sc(C(N)=O)c(N)c12 [Compound 75168, 3-amino-4-ethyl-6-methyl-N˜5˜-phenylthieno[2,3-b]pyridine-2,5-dicarboxamide] | 7.91 |  |  |
| COc1ccc2cc3c(N)n[nH]c3nc2c1 [Compound 89246, 7-methoxy-1H-pyrazolo[3,4-b]quinolin-3-ylamine] | 8.41 | 24.6 | CC50 at 3 days ([2]; analogs, Table 8, MTS): 29 µM |
| CCc1c(C)nc2sc(C(N)=O)c(N)c2c1C [Compound 103833, 3-amino-5-ethyl-4,6-dimethylthieno[2,3-b]pyridine-2-carboxamide] | > 37.6 | > 37.6 | CC50 (fresh human PBMCs; human, 7 days): > 37.6 µM |
| COc1ccc2nc(C(F)(F)F)c(C#N)c(N)c2c1 [Compound 104366, 4-amino-6-methoxy-2-(trifluoromethyl)-3-quinolinecarbonitrile] |  | 12.4 | CC50 at 24 hours ([1]; 50% inhibition of Firefly Luciferase (toxicity/non-specificity), 24 hours, read-out: TC50): 17.2 µM |
| CS(=O)(=O)c1ncc(-c2ccc(Br)cc2)cn1 [Compound 107129, -(4-bromophenyl)-2-(methylsulfonyl)pyrimidine] | 30.9 | > 53 |  |
| COc1cccc(NC(=O)c2cc(Cl)nnc2Cl)c1 [Compound 107740, 3,6-dichloro-N-(3-methoxyphenyl)-4-pyridazinecarboxamide] | 18.5 | > 29.3 |  |
| Fc1ccc(Nc2ncnc3ccccc23)cc1Cl [Compound 109020, N-(3-chloro-4-fluorophenyl)-N-(4-quinazolinyl)amine] | > 40.8 | > 40.8 | CC50 (fresh human PBMCs; human, 7 days): > 40.8 µM |
